From ChEMBL document CHEMBL3351827, “Design, synthesis and evaluation of novel 5-phenylpyridin-2(1H)-one derivatives as potent reversible Bruton's tyrosine kinase inhibitors” (Bioorg Med Chem, 2015)
Active and inactive are the calls of the source. No cut-off for these calls is given here.

Legend:
[1] = target: T1, Tyrosine-protein kinase BTK (Homo sapiens, UniProt Q06187); experiment: Inhibition of BTK in human Ramos cells assessed as reduction in IgM-induced calcium influx incubated for 20 mins by Fluo-4 dye based fluorescence assay; type: cell-based
T1 sequence (Q06187 whole entry): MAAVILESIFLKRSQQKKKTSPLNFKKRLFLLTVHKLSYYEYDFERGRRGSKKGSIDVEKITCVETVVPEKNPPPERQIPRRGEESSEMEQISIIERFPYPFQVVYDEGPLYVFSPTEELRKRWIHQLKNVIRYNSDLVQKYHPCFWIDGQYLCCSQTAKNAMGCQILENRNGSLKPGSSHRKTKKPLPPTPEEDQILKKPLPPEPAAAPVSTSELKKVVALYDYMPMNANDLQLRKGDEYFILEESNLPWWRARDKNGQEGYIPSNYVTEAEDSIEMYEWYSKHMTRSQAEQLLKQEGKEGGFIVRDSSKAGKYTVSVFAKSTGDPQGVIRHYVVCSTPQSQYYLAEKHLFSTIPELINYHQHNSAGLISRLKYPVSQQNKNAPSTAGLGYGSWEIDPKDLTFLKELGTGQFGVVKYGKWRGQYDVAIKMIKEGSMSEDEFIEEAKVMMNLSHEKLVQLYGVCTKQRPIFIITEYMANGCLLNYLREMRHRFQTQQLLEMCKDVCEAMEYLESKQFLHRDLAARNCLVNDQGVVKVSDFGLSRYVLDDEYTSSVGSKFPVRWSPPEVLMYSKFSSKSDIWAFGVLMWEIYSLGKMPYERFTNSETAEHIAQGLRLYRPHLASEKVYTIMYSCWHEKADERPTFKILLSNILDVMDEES

[2] = target: T1, Tyrosine-protein kinase BTK; experiment: Inhibition of BTK (unknown origin) using biotin-labeled peptide substrate incubated for 1 hr by TR-FRET based HTRF kinase assay
[3] = Apparent volume of distribution in Sprague-Dawley rat at 1 mg/kg, iv measured during 2 mins to 24 hrs period post dose by LC/MS/MS method; type: ADME, organism-based; parameters: dose 1 mg/kg, route intravenous; settings: in vivo, read-out: Vz
[4] = Half life in Sprague-Dawley rat at 2 mg/kg, po measured during 2 mins to 24 hrs period post dose by LC/MS/MS method; type: ADME, organism-based; parameters: dose 2 mg/kg, route oral; settings: in vivo
[5] = Cmax in Sprague-Dawley rat at 1 mg/kg, iv measured during 2 mins to 24 hrs period post dose by LC/MS/MS method; type: ADME, organism-based; parameters: dose 1 mg/kg, route intravenous; settings: in vivo
Rattus norvegicus [6] = experiment: Apparent volume of distribution in Sprague-Dawley rat at 2 mg/kg, po measured during 2 mins to 24 hrs period post dose by LC/MS/MS method; type: ADME, organism-based; parameters: dose 2 mg/kg, route oral; settings: in vivo
[7] = AUC in Sprague-Dawley rat at 1 mg/kg, iv measured during 2 mins to 24 hrs period post dose by LC/MS/MS method; type: ADME, organism-based; parameters: time 0.033-24 hr, dose 1 mg/kg, route intravenous; settings: plasma
[8] = Clearance in Sprague-Dawley rat at 2 mg/kg, po measured during 2 mins to 24 hrs period post dose by LC/MS/MS method; type: ADME, organism-based; parameters: dose 2 mg/kg, route oral; settings: in vivo
[9] = AUC in Sprague-Dawley rat at 2 mg/kg, po measured during 2 mins to 24 hrs period post dose by LC/MS/MS method; type: ADME, organism-based; parameters: time upper 24 hr, time lower 0.033 hr, dose 2 mg/kg, route oral; settings: plasma
[10] = Cmax in Sprague-Dawley rat at 2 mg/kg, po measured during 2 mins to 24 hrs period post dose by LC/MS/MS method; type: ADME, organism-based; parameters: dose 2 mg/kg, route oral; settings: in vivo
[11] = Oral bioavailability in Sprague-Dawley rat at 2 mg/kg measured during 2 mins to 24 hrs period post dose by LC/MS/MS method; type: ADME, organism-based; settings: in vivo
Rattus norvegicus [12] = experiment: Toxicity in Wistar rat model of collagen-induced arthritis assessed reduction in body weight at 6 and 20 mg/kg, po dosed for 13 days starting from day 14 post collagen challenge; type: organism-based; parameters: dose 20 mg/kg, route oral; settings: in vivo, 312 h
Rattus norvegicus [13] = species on record: Rattus norvegicus; settings: Wistar, 6 mg/kg
Description: Inhibition of collagen-induced arthritis in Wistar rat assessed as reduction in disease progression at 6 mg/kg, po dosed for 13 days starting from day 14 post collagen challenge

[14] = Mean residence time (0 to t) in Sprague-Dawley rat at 1 mg/kg, iv measured during 2 mins to 24 hrs period post dose by LC/MS/MS method; type: ADME, organism-based; parameters: dose 1 mg/kg, route intravenous; settings: in vivo
[15] = Clearance in Sprague-Dawley rat at 1 mg/kg, iv measured during 2 mins to 24 hrs period post dose by LC/MS/MS method; type: ADME, organism-based; parameters: dose 1 mg/kg, route intravenous; settings: in vivo
[16] = Half life in Sprague-Dawley rat at 1 mg/kg, iv measured during 2 mins to 24 hrs period post dose by LC/MS/MS method; type: ADME, organism-based; parameters: dose 1 mg/kg, route intravenous; settings: in vivo
[17] = Mean residence time (0 to t) in Sprague-Dawley rat at 2 mg/kg, po measured during 2 mins to 24 hrs period post dose by LC/MS/MS method; type: ADME, organism-based; parameters: dose 2 mg/kg, route oral; settings: in vivo
Rattus norvegicus [18] = experiment: Inhibition of collagen-induced arthritis in Wistar rat assessed as reduction in disease progression at 20 mg/kg, po dosed for 13 days starting from day 14 post collagen challenge; type: functional, organism-based; parameters: dose 20 mg/kg

SMILES	IC50 [1]	IC50 [2]	also measured
Cn1cc(-c2cccc(-n3ccc4cc(C5CC5)cc(F)c4c3=O)c2CO)cc(Nc2ccc(N3CCN(C(=O)C4CC4)CC3)cn2)c1=O	4360 nM	28 nM	–
CN1CCN(c2ccc(Nc3cc(-c4cccc(-n5ccc6ccccc6c5=O)c4CO)cn(C)c3=O)nc2)CC1	–	1030 nM	–
CN1CCN(c2ccc(C(=O)Nc3cc(-c4cccc(-n5ccc6cc(C7CC7)cc(F)c6c5=O)c4CO)cn(C)c3=O)cc2)CC1	> 5000 nM	818 nM	–
CN1CCN(c2ccc(Nc3cc(-c4cccc(-n5ccc6cc(C7CC7)ncc6c5=O)c4CO)cn(C)c3=O)nc2)CC1	124 nM	255 nM	–
Cc1c(NC(=O)c2ccc(C(C)(C)C)cc2)cccc1-c1cc(Nc2ccc(N3CCN(C)CC3)cn2)c(=O)n(C)c1	> 5000 nM	875 nM	–
Cn1cc(-c2cccc(-n3ccc4cc(C5CC5)cc(F)c4c3=O)c2CO)cc(Nc2ccc(C3CCN(C4COC4)CC3)cn2)c1=O	21 nM	20 nM	–
CN1CCN(c2ccc(Nc3cc(-c4cccc(-n5ccc6cc(N(C)C)ncc6c5=O)c4CO)cn(C)c3=O)nc2)CC1	1030 nM	431 nM	–
CN1CCN(c2ccc(CNc3cc(-c4cccc(-n5ccc6cc(C7CC7)cc(F)c6c5=O)c4CO)cn(C)c3=O)cc2)CC1	–	> 5000 nM	–
CN1CCN(c2ccc(Nc3cc(-c4cccc(-n5ccc6nc(C7CC7)ccc6c5=O)c4CO)cn(C)c3=O)nc2)CC1	3250 nM	564 nM	–
Cn1cc(-c2cccc(-n3ccc4cc(C5CC5)cc(F)c4c3=O)c2CO)cc(Nc2ccc(N3CCN(C4COC4)CC3)cn2)c1=O	8 nM	16 nM	Vd [3]: 9.28 L/kg; half-life [4]: 11.5 h; Cmax [5]: 1090 ng/mL; Vz (Rattus norvegicus [6]): 13.4 L/kg; AUC [7]: 1670 ng·h/mL; CL/F [8]: 13.5 mL/min/kg; AUC [9]: 1950 ng·h/mL; Cmax [10]: 170 ng/mL; bioavailability [11]: 58.4%; Activity (Rattus norvegicus [12]): Non-toxic; inhibition (Rattus norvegicus [13]): Active; MRT last [14]: 6.48 h; clearance [15]: 7.83 mL/min/kg; half-life [16]: 13.6 h; MRT last [17]: 8.78 h; inhibition (Rattus norvegicus [18]): Active
Cc1c(Nc2ncnc3ccccc23)cccc1-c1c[nH]c(=O)c(Nc2ccc(N3CCN(C)CC3)cn2)c1C	–	> 5000 nM	–
CN1CCN(c2ccc(Nc3cc(-c4cccc(-n5ccc6cc(C7CC7)ccc6c5=O)c4CO)cn(C)c3=O)nc2)CC1	115 nM	37 nM	–
CN1CCN(c2ccc(Nc3cc(-c4cccc(-n5ccc6cc(C7CC7)cc(F)c6c5=O)c4)cn(C)c3=O)nc2)CC1	472 nM	503 nM	–
Cc1c(-c2cc(Nc3ccc(N4CCN(C5COC5)CC4)cn3)c(=O)n(C)c2)cccc1-n1ccc2cc(C3CC3)cc(F)c2c1=O	171 nM	203 nM	–
CN1CC(N2CCN(c3ccc(Nc4cc(-c5cccc(-n6ccc7cc(C8CC8)cc(F)c7c6=O)c5CO)cn(C)c4=O)nc3)CC2)C1	33 nM	9 nM	–
Cc1c(-c2cc(Nc3ccc(N4CCN(C)CC4)cn3)c(=O)n(C)c2)cccc1N1C(=O)c2ccc(C(C)(C)C)cc2C1=O	–	> 5000 nM	–
CN1CCN(c2ccc(Nc3cc(-c4cccc(-n5ccc6cc(C7CC7)cc(F)c6c5=O)c4CO)cn(C)c3=O)nc2)CC1	–	–	Vd [3]: 50.5 L/kg; half-life [4]: 11.5 h; Cmax [5]: 220 ng/mL; Vz (Rattus norvegicus [6]): 86.69 L/kg; AUC [7]: 404 ng·h/mL; CL/F [8]: 84.5 mL/min/kg; AUC [9]: 403 ng·h/mL; Cmax [10]: 34.8 ng/mL; bioavailability [11]: 49.9%; MRT last [14]: 6.56 h; clearance [15]: 41.2 mL/min/kg; half-life [16]: 14.1 h; MRT last [17]: 9.31 h; inhibition (Rattus norvegicus [18]): Active
Cc1c(-c2cc(Nc3ccc(N4CCN(C)CC4)cn3)c(=O)n(C)c2)cccc1-c1nc2cc(C(C)(C)C)ccc2[nH]1	–	> 5000 nM	–
Cc1c(-c2cc(Nc3ccc(N4CCN(C)CC4)cn3)c(=O)n(C)c2)cccc1-n1ccc2cc(C3CC3)cc(F)c2c1=O	254 nM	365 nM	–
